Biological target: T1, SHP2 protein (Homo sapiens, UniProt Q06124)
T1 sequence (Q06124 1-593): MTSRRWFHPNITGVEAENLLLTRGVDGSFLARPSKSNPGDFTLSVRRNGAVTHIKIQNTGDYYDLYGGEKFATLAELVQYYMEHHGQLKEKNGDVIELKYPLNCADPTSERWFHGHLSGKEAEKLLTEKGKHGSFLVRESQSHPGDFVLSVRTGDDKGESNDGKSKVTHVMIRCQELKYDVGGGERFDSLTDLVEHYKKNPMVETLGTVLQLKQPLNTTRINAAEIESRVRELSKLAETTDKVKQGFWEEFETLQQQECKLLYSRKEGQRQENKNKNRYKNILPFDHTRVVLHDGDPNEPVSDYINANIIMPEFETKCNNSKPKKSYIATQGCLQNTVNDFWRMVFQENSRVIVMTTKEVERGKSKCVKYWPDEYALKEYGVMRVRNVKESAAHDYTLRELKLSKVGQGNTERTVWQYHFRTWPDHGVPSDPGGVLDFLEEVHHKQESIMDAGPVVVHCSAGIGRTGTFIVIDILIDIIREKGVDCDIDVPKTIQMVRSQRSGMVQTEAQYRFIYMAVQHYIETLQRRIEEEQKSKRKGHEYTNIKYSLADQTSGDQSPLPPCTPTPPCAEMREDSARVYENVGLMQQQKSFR
Assay: Measurement of SHP2 protein degradation in MV-4-11 cells (western blotting)
Type: cell-based
Design: endogenous in cells; host or cells: MV-4-11
Conditions: for SHP2 degradation (%) 10 nM / SHP2 degradation (%) 100 nM / SHP2 degradation (%) 1000 nM: MV-4-11 cells, 24 hours; for SHP2 protein degradation activity (in words): comment on Table 4
Procedure: Experimental Example 2: Measurement of SHP2 Protein Degradation in MV-4-11 Cells
MV-4-11 cells were treated with the synthesized Example compound, and the amount of SHP2 protein present in the cells was measured using western blotting detection. The protocol of the experiment conducted using MV-4-11 cells was as follows:
[Culture] MV-4-11 cells resuspended in IMDM MEDIUM (Hyclone, SH30228.01) containing 5% FBS (Hyclone, SV30207.02) and 1% Penicillin-streptomycin (Welgene, LS 202-02) were seeded at a density of 1×10^6/mL/well in a 12-well plate in an amount of 1 ml each.
[Compound treatment] The 12-well plate was treated as follows: Cells were treated with compounds at a final concentration of […] made by serial dilution of 10 mM stock with DMSO in 1/100 increments […]. After 24 hours, cells were harvested. For the negative control group, DMSO diluted 1/100 to the media (3 mL DMSO+297 mL media) was added.
[Harvest] Each well was collected in a 1.5 mL microtube by pipetting with a 1 mL pipette and centrifuged (500 g, 5 min, 4° C.). The supernatant was removed. It was washed with PBS, and then centrifuged again (500 g, 5 min, 4° C.). Thereafter, the supernatant was removed to prepare a pellet.
[Cell Lysis and Sample preparation] Lysis buffer was prepared as follows: […] of RIPA buffer (Biosesang, RC2038-050-00)+0.5 mM PMSF (SIGMA, P7626)+1× Protease/Phosphatase Inhibitor (Cell signaling, 5872S) per well was added and placed on ice for 30 minutes (vortexing at 0 and 30 minutes, respectively). After sonication process (10 seconds pulse, 30 seconds rest, 5 cycles, 70% amplification), centrifugation (15000 g, 15 min, 4° C.) was performed, and then only the supernatant was taken and transferred to a microtube. The sample was diluted ¼ with RIPA buffer in a 96-well plate, and mixed with A:B=50:1 of the BCA Protein Assay Kit (iNtRON, 21071). […] each of the mixture was left at 37° C. for 30 minutes, and cooled for 10 minutes. Then, absorbance was measured at 562 nm with the SYNERGY H1 microplate reader from BioTek. After making a sample by quantifying the protein with the measured value, boiling was performed at 70° C. for 10 minutes. At this time, the sample buffer used was a mixture of NuPAGE or Bolt 4× sample buffer (Invitrogen) and each 10× sample reducing agent according to the gel to be used, and RIPA buffer was used for protein dilution.
[Western blotting detection method] The same amount of sample was loaded on NuPAGE or Bolt Bis-tris 4-12% gradient gel and run (200 V, 35 minutes). It was transferred to 0.2 mm NC membrane with Trans-blot Turbo (BIO-RAD) (1.3 A constant, 25 V limit, 15 minutes). Blocking was performed at room temperature for 1 hour with Skim milk or Intercept Blocking Buffer (LI-COR, 927-60001):0.1% TBST=1:1. Anti-SHPTP2 Mouse (1:500 in 2% BSA/0.2% TBST, size: 70 kDa, Santacruz sc-7384) was incubated overnight at 4° C., and Anti-GAPDH Rabbit (1:2,000 in 2% BSA/0.2% TBST, size: 37 kDa, CST #2118) was incubated at room temperature for 1 hour 30 minutes or 3 hours. It was washed 3 times for 5 minutes each with 0.2% TBST washing buffer. Secondary antibody Anti-Rabbit IgG (1:5,000 in 2% BSA/0.2% TBST, CST), IRDye® 680RD Goat anti-Rabbit IgG Secondary Antibody (1:10,000 in 2% BSA/0.2% TBST, LI-COR 926-68071) were added and incubated for 45 minutes on a rocker at room temperature. It was washed 5 times for 5 minutes each with 0.2% TBST washing buffer and detected with LI-COR's Odyssey. At this time, SHPTP2 was detected using SuperSignal West Pico PLUS Chemiluminescent Substrate, and house-keeping genes were also detected.
In the results of Table 4 below, Compounds 1-7, 13-19, and 21-26 are results in KYSE-520 cells, and the others are results in MV-4-11 cells.

Row | Structure (SMILES) | SHP2 degradation (%) 10 nM [%] | SHP2 degradation (%) 100 nM [%] | SHP2 protein degradation activity (in words) | SHP2 degradation (%) 1000 nM [%]
1 | Cc1ncsc1-c1ccc(CNC(=O)[C@@H]2C[C@@H](O)CN2C(=O)[C@@H](NC(=O)C2(F)CC2)C(C)(C)C)c(OCCN2CCN(C(=O)CC(=O)Nc3cccc(Sc4ncc(N5CCC(C)(N)CC5)nc4N)c3Cl)CC2)c1 [Example 54, (2S,4R)—N-(2-(2-(4-(3-((3-((3-amino-5-(4-amino-4-methylpiperidin-1-yl)pyrazin-2-yl)thio)-2-chlorophenyl)amino)-3-oxopropanoyl)piperazin-1-yl)ethoxy)-4-(4-methylthiazol-5-yl)benzyl)-1-((S)-2-(1-fluorocyclopropane-1-carboxamido)-3,3-dimethylbutanoyl)-4-hydroxypyrrolidine-2-carboxamide] | 85.8 | 98.3 | – | –
2 | Cc1ncsc1-c1ccc(CNC(=O)[C@@H]2C[C@@H](O)CN2C(=O)[C@@H](NC(=O)C2(F)CC2)C(C)(C)C)c(OCCC2CCN(C(=O)C3(C(=O)Nc4cccc(Sc5cnc(N6CCC(C)(CN)CC6)cn5)c4Cl)CC3)CC2)c1 [Example 47, (2S,4R)—N-(2-(2-(1-(1-((3-((5-(4-(aminomethyl)-4-methylpiperidin-1-yl)pyrazin-2-yl)thio)-2-chlorophenyl)carbamoyl)cyclopropane-1-carbonyl)piperidin-4-yl)ethoxy)-4-(4-methylthiazol-5-yl)benzyl)-1-((S)-2-(1-fluorocyclopropane-1-carboxamido)-3,3-dimethylbutanoyl)-4-hydroxypyrrolidine-2-carboxamide] | −2.5 | 21.1 | somewhat decreased | –
3 | Cc1ncsc1-c1ccc(CNC(=O)[C@@H]2C[C@@H](O)CN2C(=O)[C@@H](NC(=O)C2(F)CC2)C(C)(C)C)c(OCCCN2CCN(C(=O)CC(=O)Nc3cccc(Sc4cnc(N5CCC(C)(CN)CC5)cn4)c3Cl)CC2)c1 [Example 60, (2S,4R)—N-(2-(3-(4-(3-((3-((5-(4-(aminomethyl)-4-methylpiperidin-1-yl)pyrazin-2-yl)thio)-2-chlorophenyl)amino)-3-oxopropanoyl)piperazin-1-yl)propoxy)-4-(4-methylthiazol-5-yl)benzyl)-1-((S)-2-(1-fluorocyclopropane-1-carboxamido)-3,3-dimethylbutanoyl)-4-hydroxypyrrolidine-2-carboxamide] | 59 | 94 | – | 95.5
4 | CC(=O)N[C@H](C(=O)N1C[C@H](O)C[C@H]1C(=O)NCc1ccc(-c2scnc2C)cc1OCCC1CCN(C(=O)CC(=O)Nc2cccc(Sc3cnc(N4CCC(C)(CN)CC4)cn3)c2Cl)CC1)C(C)(C)C [Example 38, (2S,4R)-1-((S)-2-acetamido-3,3-dimethylbutanoyl)-N-(2-(2-(1-(3-((3-((5-(4-(aminomethyl)-4-methylpiperidin-1-yl)pyrazin-2-yl)thio)-2-chlorophenyl)amino)-3-oxopropanoyl)piperidin-4-yl)ethoxy)-4-(4-methylthiazol-5-yl)benzyl)-4-hydroxypyrrolidine-2-carboxamide] | 86 | 93 | – | 93.5
5 | Cc1ncsc1-c1ccc(CNC(=O)[C@@H]2C[C@@H](O)CN2C(=O)[C@@H](NC(=O)C2(F)CC2)C(C)(C)C)c(OCCN2CCN(C(=O)CC(=O)Nc3cccc(Sc4cnc(N5CCC(C)(CN)CC5)cn4)c3Cl)C[C@@H]2C(=O)O)c1 [Example 70, (R)-4-(3-((3-((5-(4-(aminomethyl)-4-methylpiperidin-1-yl)pyrazin-2-yl)thio)-2-chlorophenyl)amino)-3-oxopropanoyl)-1-(2-(2-(((2S,4R)-1-((S)-2-(1-fluorocyclopropane-1-carboxamido)-3,3-dimethylbutanoyl)-4-hydroxypyrrolidine-2-carboxamido)methyl)-5-(4-methylthiazol-5-yl)phenoxy)ethyl)piperazine-2-carboxylic Acid] | 14.4 | 59.2 | – | –
6 | Cc1ncsc1-c1ccc(CNC(=O)[C@@H]2C[C@@H](O)CN2C(=O)[C@@H](NC(=O)C2(F)CC2)C(C)(C)C)c(OCCCC2CCN(C(=O)CC(=O)Nc3cccc(Sc4ncc(N5CCC(C)(N)CC5)nc4N)c3Cl)CC2)c1 [Example 40, (2S,4R)—N-(2-(3-(1-(3-((3-((3-amino-5-(4-amino-4-methylpiperidin-1-yl)pyrazin-2-yl)thio)-2-chlorophenyl)amino)-3-oxopropanoyl)piperidin-4-yl)propoxy)-4-(4-methylthiazol-5-yl)benzyl)-1-((S)-2-(1-fluorocyclopropane-1-carboxamido)-3,3-dimethylbutanoyl)-4-hydroxypyrrolidine-2-carboxamide] | 67.0 | 95.0 | – | –
7 | Cc1ncsc1-c1ccc(CNC(=O)[C@@H]2C[C@@H](O)CN2C(=O)[C@@H](NC(=O)C2(F)CC2)C(C)(C)C)c(OC2CC3(CCN(C(=O)CC(=O)N(C)c4cccc(Sc5cnc(N6CCC(C)(CN)CC6)cn5)c4Cl)CC3)C2)c1 [Example 51, (2S,4R)—N-(2-((7-(3-((3-((5-(4-(aminomethyl)-4-methylpiperidin-1-yl)pyrazin-2-yl)thio)-2-chlorophenyl)(methyl)amino)-3-oxopropanoyl)-7-azaspiro[3.5]nonan-2-yl)oxy)-4-(4-methylthiazol-5-yl)benzyl)-1-((S)-2-(1-fluorocyclopropane-1-carboxamido)-3,3-dimethylbutanoyl)-4-hydroxypyrrolidine-2-carboxamide] | 4.7 | 74.1 | – | –
8 | Cc1ncsc1-c1ccc(CNC(=O)[C@@H]2C[C@@H](O)CN2C(=O)[C@@H](NC(=O)C2(F)CC2)C(C)(C)C)c(OCCCC2CCN(C(=O)C3(C(=O)Nc4cccc(Sc5cnc(N6CCC(C)(CN)CC6)cn5)c4Cl)CC3)CC2)c1 [Example 48, (2S,4R)—N-(2-(3-(1-(1-((3-((5-(4-(aminomethyl)-4-methylpiperidin-1-yl)pyrazin-2-yl)thio)-2-chlorophenyl)carbamoyl)cyclopropane-1-carbonyl)piperidin-4-yl)propoxy)-4-(4-methylthiazol-5-yl)benzyl)-1-((S)-2-(1-fluorocyclopropane-1-carboxamido)-3,3-dimethylbutanoyl)-4-hydroxypyrrolidine-2-carboxamide] | 18.6 | 57.3 | somewhat decreased | –

Reference: patent publication US20250230154A1, “COMPOUND HAVING SHP2 PROTEIN DEGRADING ACTIVITY, AND MEDICAL USES THEREOF” (UBIX THERAPEUTICS, INC., priority 2021, published 2025)
